Laboratory results reported in patent publication US6881741B2 (ViroChem Pharma Inc., priority 2001, dated 2005).
Like-named read-outs stand apart in the source and are kept apart here.

Biological target: recombinant HCV NS5B (HCV RNA-dependent RNA polymerase) (Hepatitis C virus genotype 1b, UniProt P26663)
Assay: biochemical
[1] = related polymerase activity (Example 27 list), read-out: IC50
[2] = HCV polymerase activity, list of compounds of Example 27, read-out: IC50 (polymerase activity)

Sequence of recombinant HCV NS5B (HCV RNA-dependent RNA polymerase) (P26663 2420-3010 limits assumed): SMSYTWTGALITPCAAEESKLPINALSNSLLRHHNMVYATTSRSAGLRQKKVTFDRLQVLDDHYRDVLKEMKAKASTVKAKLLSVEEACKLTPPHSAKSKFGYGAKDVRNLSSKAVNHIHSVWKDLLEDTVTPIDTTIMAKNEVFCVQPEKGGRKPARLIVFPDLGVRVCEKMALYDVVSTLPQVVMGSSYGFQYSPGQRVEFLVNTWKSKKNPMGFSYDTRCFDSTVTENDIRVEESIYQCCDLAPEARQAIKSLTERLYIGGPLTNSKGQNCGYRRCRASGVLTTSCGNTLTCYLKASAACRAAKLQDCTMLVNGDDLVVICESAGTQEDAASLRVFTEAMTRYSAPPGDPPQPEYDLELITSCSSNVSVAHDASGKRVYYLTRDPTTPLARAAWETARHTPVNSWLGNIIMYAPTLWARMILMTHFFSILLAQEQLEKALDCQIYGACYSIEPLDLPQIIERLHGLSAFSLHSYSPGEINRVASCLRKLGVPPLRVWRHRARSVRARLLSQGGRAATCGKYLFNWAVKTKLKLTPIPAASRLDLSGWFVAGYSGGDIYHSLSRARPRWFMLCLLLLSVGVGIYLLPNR

For `Cc1cc(Br)ccc1S(=O)(=O)Nc1cc(-c2ccccc2)sc1C(=O)O` [Compound 220, 3-(4-BROMO-2-METHYL-BENZENESULFONYLAMINO)-5-PHENYL-THIOPHENE-2-CARBOXYLIC ACID], the IC50 [1] was < 5 µM.

`O=C(O)c1sc(-c2ccccc2)cc1NS(=O)(=O)c1cc(OCC(F)(F)F)ccc1OCC(F)(F)F` [Compound 176, 3-[2,5-BIS-(2,2,2-TRIFLUORO-ETHOXY)-BENZENESULFONYLAMINO]-5-PHENYL-THIOPHENE-2-CARBOXYLIC ACID] gave an IC50 [1] of 5 to 20 µM.

In the case of `COc1ccc(S(=O)(=O)Nc2cc(-c3ccccc3)sc2C(=O)O)c([N+](=O)[O-])c1` [Compound 152, 3-(4-METHOXY-2-NITRO-BENZENESULFONYLAMINO)-5-PHENYL-THIOPHENE-2-CARBOXYLIC ACID], the IC50 [1] is reported as 5 to 20 µM.

`CC(=O)N(Cc1cccc(Cl)c1)c1cc(-c2ccccc2)sc1C(=O)O` [Compound 476, 3-[ACETYL-(3-CHLORO-BENZYL)-AMINO]- 5-PHENYL-THIOPHENE-2-CARBOXYLIC ACID] was tested, and the IC50 [2] was > 20 µM.

With `CC(C)N(C(=O)c1ccc(Cl)cc1Cl)c1cc(-c2ccc(-c3nnn[nH]3)cc2)sc1C(=O)O` [Compound 430, 3-[(2,4-DICHLORO-BENZOYL)- ISOPROPYL-AMINO]-5-[4-(1#H!- TETRAZOL-5-YL)-PHENYL]-THIOPHENE- 2-CARBOXYLIC ACID] the IC50 [2] was < 5 µM.

For `O=C(O)c1sc(-c2ccccc2)cc1NS(=O)(=O)c1ccc(Cl)cc1Cl` [Compound 7, 3-(2,4-DICHLORO-BENZENESULFONYLAMINO)-5-PHENYL-THIOPHENE-2-CARBOXYLIC ACID], the IC50 [1] was < 5 µM.

With `Cc1ccc(C(=O)N(c2cc(-c3ccccc3)sc2C(=O)O)C(C)C)c(O)c1` [Compound 301, 3-[(2-HYDROXY-4-METHYL-BENZOYL)- ISOPROPYL-AMINO]-5-PHENYL- THIOPHENE-2-CARBOXYLIC ACID] the IC50 [1] was 5 to 20 µM.

For `CCCN(C(=O)c1ccc(C)cc1)c1cc(-c2ccc(CCC(=O)O)cc2)sc1C(=O)O` [Compound 318, 5-[4-(2-CARBOXY-ETHYL)-PHENYL]-3-[(4- METHYL-BENZOYL)-PROPYL-AMINO]- THIOPHENE-2-CARBOXYLIC ACID], the IC50 [1] was 5 to 20 µM.

In the case of `CC(C)N(C(=O)c1ccc(Cl)cc1Cl)c1cc(-c2ccc(F)cc2)sc1C(=O)O` [Compound 356, 3-[(2,4-DICHLORO-BENZOYL)- ISOPROPYL-AMINO]-5-(4-FLUORO- PHENYL)-THIOPHENE-2-CARBOXYLIC ACID], the IC50 [1] is reported as < 5 µM.

`Cc1ccc(C)c(S(=O)(=O)Nc2cc(-c3ccc([N+](=O)[O-])cc3)sc2C(=O)O)c1` [Compound 100, 3-(2,5-DIMETHYL-BENZENESULFONYLAMINO)-5-(4-NITRO-PHENYL)-THIOPHENE-2-CARBOXYLIC ACID] was tested, and the IC50 [1] was < 5 µM.

`Cc1ccccc1S(=O)(=O)Nc1cc(-c2ccc3[nH]ccc3c2)sc1C(=O)O` [Compound 260, 5-(1H-INDOL-5-YL)-3-(TOLUENE-2-SULFONYLAMINO)-THIOPHENE-2-CARBOXYLIC ACID] gave an IC50 [1] of 5 to 20 µM.

For `Cc1ccccc1S(=O)(=O)Nc1cc(-c2cccc(C#N)c2)sc1C(=O)O` [Compound 117, 5-(3-CYANO-PHENYL)-3-(TOLUENE-2-SULFONYLAMINO)-THIOPHENE-2-CARBOXYLIC ACID], the IC50 [1] was < 5 µM.

`C=CCN(C(=O)c1ccc(C)cc1)c1cc(-c2ccccc2)sc1C(=O)O` [Compound 162, 3-[ALLYL-(4-METHYL-BENZOYL)-AMINO]-5-PHENYL-THIOPHENE-2-CARBOXYLIC ACID] was tested, and the IC50 [1] was < 5 µM.

In the case of `CC1CCC(C(=O)N(c2cc(C3=CCN(C(=O)OCc4ccccc4)CC3)sc2C(=O)O)C(C)C)CC1` (stereo not shown) [Compound 524, 4-{5-CARBOXY-4-[ISOPROPYL-(4- METHYL-CYCLOHEXANECARBONYL)- AMINO]-THIOPHEN-2-YL}-3,6-DIHYDRO- 2#H!-PYRIDINE-1-CARBOXYLIC ACID BENZYL ESTER], the IC50 [2] is reported as < 5 µM.

`CC(=O)c1ccc(-c2cc(N(C(=O)c3ccc(Cl)cc3Cl)C(C)C)c(C(=O)O)s2)s1` [Compound 358, 5′-ACETYL-4-[(2,4-DICHLORO-BENZOYL)- ISOPROPYL-AMINO]-[2,2′]BITHIOPHENYL- 5-CARBOXYLIC ACID] was tested, and the IC50 [1] was < 5 µM.

With `CC1CCCCC1C(=O)N(c1cc(-c2ccccc2)sc1C(=O)O)C(C)C` (stereo not shown) [Compound 379, 3-[ISOPROPYL-(2-METHYL- CYCLOHEXANECARBONYL)-AMINO]-5- PHENYL-THIOPHENE-2-CARBOXYLIC ACID] the IC50 [1] was 5 to 20 µM.

`COc1cc(C)ccc1C(=O)N(C)c1cc(-c2ccccc2)sc1C(=O)O` [Compound 205, 3-[(2-METHOXY-4-METHYL-BENZOYL)-METHYL-AMINO]-5-PHENYL-THIOPHENE-2-CARBOXYLIC ACID] was tested, and the IC50 [1] was 5 to 20 µM.

In the case of `CC(C)CC(=O)N(C)c1cc(-c2ccccc2)sc1C(=O)O` [Compound 172, 3-[METHYL-(3-METHYL-BUTYRYL)-AMINO]-5-PHENYL-THIOPHENE-2-CARBOXYLIC ACID], the IC50 [1] is reported as < 5 µM.

`Cc1ccccc1S(=O)(=O)Nc1cc(-c2cccnc2)sc1C(=O)O` [Compound 87, 5-PYRIDIN-3-YL-3-(TOLUENE-2-SULFONYLAMINO)-THIOPHENE-2-CARBOXYLIC ACID] was tested, and the IC50 [1] was < 5 µM.

For `Cc1ccc(C(=O)N(Cc2cccc(C(F)(F)F)c2)c2cc(-c3ccccc3)sc2C(=O)O)cc1` [Compound 330, 3-[(4-METHYL-BENZOYL)-(3- TRIFLUOROMETHYL-BENZYL)-AMINO]-5- PHENYL-THIOPHENE-2-CARBOXYLIC ACID], the IC50 [1] was < 5 µM.

For `CN(C(=O)c1cc(-c2ccccc2)sc1C(=O)O)c1ccc(Cl)cc1Cl` [Compound 585, 3-[(2,4-DICHLORO-PHENYL)-METHYL- CARBAMOYL]-5-PHENYL-THIOPHENE-2- CARBOXYLIC ACID], the IC50 [2] was 5 to 20 µM.

For `O=C(O)c1sc(-c2ccccc2)cc1NS(=O)(=O)c1ccccc1CCl` [Compound 189, 3-(2-CHLOROMETHYL-BENZENESULFONYLAMINO)-5-PHENYL-THIOPHENE-2-CARBOXYLIC ACID], the IC50 [1] was 5 to 20 µM.

Compound `CC(C)N(C(=O)c1cc(Cl)cc(Cl)c1)c1cc(-c2ccccc2)sc1C(=O)O` [Compound 219, 3-[(3,5-DICHLORO-BENZOYL)-ISOPROPYL-AMINO]-5-PHENYL-THIOPHENE-2-CARBOXYLIC ACID] has an IC50 [1] of 5 to 20 µM.

In the case of `COc1cccc(CN(C(=O)c2ccc(C)cc2)c2cc(-c3ccccc3)sc2C(=O)O)c1` [Compound 344, 3-[(3-METHOXY-BENZYL)-(4-METHYL- BENZOYL)-AMINO]-5-PHENYL- THIOPHENE-2-CARBOXYLIC ACID], the IC50 [1] is reported as < 5 µM.

For `Cc1cc(C(=O)N(C)c2cc(-c3ccccc3)sc2C(=O)O)ccc1Br` [Compound 255, 3-[(4-BROMO-3-METHYL-BENZOYL)-METHYL-AMINO]-5-PHENYL-THIOPHENE-2-CARBOXYLIC ACID], the IC50 [1] was < 5 µM.

`CCCCCc1ccc(S(=O)(=O)Nc2cc(-c3ccccc3)sc2C(=O)O)cc1` [Compound 174, 3-(4-PENTYL-BENZENESULFONYLAMINO)-5-PHENYL-THIOPHENE-2-CARBOXYLIC ACID] showed an IC50 [1] of 5 to 20 µM.

With `COCC(C)N(C(=O)C1CCC(C)CC1)c1cc(-c2ccccc2)sc1C(=O)O` (stereo not shown) [Compound 578, 3-[(2-METHOXY-1-METHYL-ETHYL)-(4- METHYL-CYCLOHEXANECARBONYL)- AMINO]-5-PHENYL-THIOPHENE-2- CARBOXYLIC ACID] the IC50 [2] was < 5 µM.

`Cc1ccccc1CN(C(=O)C1CCC1)c1cc(-c2ccccc2)sc1C(=O)O` [Compound 432, 3-[CYCLOBUTANECARBONYL-(2- METHYL-BENZYL)-AMINO]-5-PHENYL- THIOPHENE-2-CARBOXYLIC ACID] showed an IC50 [2] of 5 to 20 µM.
